Measurements: paper PMC10117725, “From an Hsp90 - binding protein to a peptide drug” (microLife, 2022)
Where no end group is shown, it is not given here.

Columns and labels:
MONO-MAC-6 (MM6) cells = experiment: MTT cytotoxicity in MM6 cells; assay type: cell-based, human; settings: 24 h
Protocol: MTT (3-(4,5-dimethylthiazol-2-yl)-2,5-diphenyl tetrazolium bromide) assay was employed to analyze the cytotoxicity of peptides and geldanamycin to the cells. 5 × 10^5 cells were seeded in a 96 flat bottom well plate and incubated for 2.5 or 24 h at 37°C with 5% CO2. The cells were then treated with increasing concentration (0 to 200 µM) of peptides or geldanamycin for 24 h. After the incubation, 10 μl of the MTT labelling reagent is added to each well to attain a final concentration 0.5 mg/ml, followed by 4 h incubation. Metabolically active cells convert the yellow tetrazolium salt to purple formazan crystals, which were solubilized using the solubilization solution (DMSO) and measured for absorbance at λmax/λref–570/690 nm (Saising et al. [2018]).

S. aureus Newman = experiment: Mouse S. aureus Newman bacteremia model; assay type: in vivo, NMRI mice
Protocol: About 8- to 10-week-old female NMRI mice were purchased from Envigo (Venray, the Netherlands) and stored under standard temperature, light, and nutrition conditions in the animal facility of the Department of Rheumatology and Inflammation Research, University of Gothenburg. […] To study the effect of L15 on S. aureus bacteremia two separate experiments were performed. The mice were treated intraperitoneally with L15 (10 mg/kg) in 200 µl of PBS every 12 h, starting 2 h before inoculation with bacteria and continuing until the animals were sacrificed. Mice were challenged with septic dose of 2 × 10^6 CFU/mouse of S aureus Newman. To induce the S. aureus systemic infection in NMRI mice, 0.2 ml of S. aureus Newman suspension was inoculated intravenously into the tail vein of the mice. During the course of the experiments, the mice were regularly weighed until the mice were sacrificed. After sacrificing the mice at day 7, kidneys from mice were aseptically removed, homogenised, serially diluted with PBS and enumerated to quantify the bacterial CFUs.

GHYFVTTFY [L13]
percentage of viable cells, MM6, 1 µM (MONO-MAC-6 (MM6) cells; 1 µM): 106.71 ± 6.40%
percentage of viable cells, MM6, 200 µM (MONO-MAC-6 (MM6) cells; 200 µM): 82.43 ± 8.59%

TAKGHYFVTTFYRNG [L15]
survival during the 7-day observation period (S. aureus Newman; L15 10 mg/kg i.p. every 12 h, 40% of the control group died): all mice treated with L15 survived
bacterial load in the kidneys (S. aureus Newman; L15 10 mg/kg i.p. every 12 h, day 7, vs PBS control): No significant difference
weight loss of infected mice (S. aureus Newman; L15 10 mg/kg i.p. every 12 h from 2 h before i.v. 2 × 10^6 CFU/mouse, 7 days, vs PBS control): significantly reduced
reduction of lethality of S. aureus in the mouse model (S. aureus Newman; mouse bacteremia model): about 40%
